The values that follow come from PubChem BioAssay (NCI).

SMILES strings stand for the structures. “And” between values parts separate entries of the source, which are not always exact repeats. Equal entries are not always repeated.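 Growth conditions: 96-well plates. Treatment: test compound, 48 hours, 5 concentrations. Analysis: linear interpolation between bracketing concentrations; unreached endpoints set to highest concentration. GI50 is the concentration that inhibits growth by half. TGI denotes the concentration required for complete inhibition of growth.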

The first test deals with CCRF-CEM leukemia. The test can be described thus: NCI-60 cell line screen, 48 h.
As to `CN(C)c1ccc2c(NCCCCCCNc3ccnc4cc(N(C)C)ccc34)ccnc2c1`, the TGI is > 100 µM.
Take `Nc1cc(=O)[nH]c(SC2=NC(N)CC(O)C2)n1` (configuration not stated): the TGI was > 100 µM.
With `CC(=O)[O][Pb]([O]C(C)=O)([c]1ccccc1)[c]1ccccc1`, the GI50 is 16.2 µM and the TGI was > 100 µM.
For `Cc1ccc2[nH]c(C(=O)NN3C(=O)CSC34CCCCC4C)c(-c3ccccc3)c2c1` (configuration not stated), in that order: 17 µM and 38.5 µM.
Take `CN1CCc2c1nc(-c1ccccc1)c1c2N(C)CC1`: the TGI is > 100 µM.
`CCC[CH2][Sn]([CH2]CCC)([O]C(C)=O)[O]C(C)=O`: the GI50 was 0.197 µM and the TGI was 0.832 µM.
As to `COC(=O)CCC(=O)N1Cc2cc(C)ccc2N(C(=O)CCC(=O)OC)Cc2cc(C)ccc21`, the TGI is > 100 µM.
The same measure, in the same setting: then `C=C1C(=O)O[C@H]2C[C@@H](C)[C@@H]3CC(=O)OC[C@@]3(C)CC12` (some centres not stated), with 55.6 µM.
For `CCOC(=O)c1c2c(n(CC(C)C)c1C)-c1nc[nH]c1C(=O)C2=O`, the GI50 was 4.78 µM and the TGI is 16.7 µM.
`CCc1ccc(NCc2cc(OC)c(OC)c(OC)c2)cc1`: the TGI is > 77.9 µM.
With `CS(=O)(=O)CC1=Nc2nnc(CCCCCCCc3nnc4n3C(=O)C(CS(C)(=O)=O)=N4)n2C1=O`, the TGI is > 100 µM.
Turning to `COc1ccccc1[N-]C(C1=C([O-])c2ccccc2C1=O)c1ccccc1.COc1ccccc1[N-]C(C1=C([O-])c2ccccc2C1=O)c1ccccc1.[Cu+2]` (configuration not stated), the GI50 was 3.49 µM and the TGI was > 100 µM.
For the molecule `O=C(NCCCCCCNC(=O)c1cccc2ccccc12)c1cccc2ccccc12`, the TGI is > 100 µM.
`COC12C=CC(CC1)c1c(O)ccc(O)c12` (configuration not stated) gave a TGI of 65.1 µM.
On to `COc1cc2cc(Oc3ccc(NC(=O)Nc4ccc(Cl)c(C(F)(F)F)c4)cc3)c(C)nc2cc1OCCN1CCCCC1`, for which the GI50 is 1.68 µM and the TGI stood at 3.76 µM.
Consider `CC1CC2C(=O)NC(=O)C2c2[nH]c3ccccc3c21` (configuration not stated), for which the TGI is > 100 µM.
`CC1=CC(=O)c2c(O)cccc2C1=O` showed a TGI of 0.621 µM.
The same measure, in the same setting: then `Cc1ccc2c(c1)C1(C)OC(CC(N)C1O)O2` (configuration not stated), with > 100 µM; and `COC(=O)[C@@H]1CSC(=S)N1C(=O)C[C@H]1CC=CC[C@H]1CC(=O)Sc1ccccc1`, with 14.9 µM; and `CC1(Sc2ccccc2)CN(Cc2ccccc2)C1=O` (configuration not stated), with > 100 µM.
Take `O=C(CCN1CCCC1)Nc1ccc2c(NCc3ccc(F)cc3)c3ccccc3nc2c1`: the GI50 was 0.463 µM and the TGI was found to be 13.4 µM.
As to `CCOP(=O)(OCC)C1CCCCOC1=O` (configuration not stated), the TGI was > 100 µM.
For the molecule `N#CC(C#N)=Cc1ccc(-c2ccc(-c3nc4ccccc4s3)cc2)o1`, the GI50 was 4.15 µM and the TGI came to 70.6 µM.
For `O=C1C(Cl)=C(N/N=c2/[nH][nH]/c(=N/NC3=C(Cl)C(=O)c4ccccc4C3=O)c3ccccc23)C(=O)c2ccccc21` the same measures were 10 µM and 56.7 µM.

The subject of another test is HCC-2998 colon. The test can be described thus: NCI-60 cell line screen, 48 h.
On to `CN(C)c1ccc2c(NCCCCCCNc3ccnc4cc(N(C)C)ccc34)ccnc2c1`, for which the TGI worked out at 70.7 µM.
On to `Nc1cc(=O)[nH]c(SC2=NC(N)CC(O)C2)n1` (configuration not stated), for which the TGI is > 100 µM.
For the molecule `CC(=O)[O][Pb]([O]C(C)=O)([c]1ccccc1)[c]1ccccc1`, the GI50 is 44.9 µM and the TGI was > 100 µM.
Turning to `Cc1ccc2[nH]c(C(=O)NN3C(=O)CSC34CCCCC4C)c(-c3ccccc3)c2c1` (configuration not stated), the GI50 was 16.4 µM and the TGI is 31.6 µM.
In the case of `CN1CCc2c1nc(-c1ccccc1)c1c2N(C)CC1`, the TGI is > 100 µM.
Take `CCC[CH2][Sn]([CH2]CCC)([O]C(C)=O)[O]C(C)=O`: the GI50 was 1.53 µM and the TGI came out at 2.92 µM.
`C=C1C(=O)O[C@H]2C[C@@H](C)[C@@H]3CC(=O)OC[C@@]3(C)CC12` (some centres not stated): the TGI was 98.5 µM.
On the same count and under the same terms, then `CCc1ccc(NCc2cc(OC)c(OC)c(OC)c2)cc1`, with 11 µM and 12.1 µM.
Take `CS(=O)(=O)CC1=Nc2nnc(CCCCCCCc3nnc4n3C(=O)C(CS(C)(=O)=O)=N4)n2C1=O`: the TGI is > 100 µM.
As for `COC12C=CC(CC1)c1c(O)ccc(O)c12` (configuration not stated), the TGI is > 100 µM.
As to `CC1=C2CCCC2C/C(=N/Nc2ccc([N+](=O)[O-])cc2[N+](=O)[O-])CC1` (configuration not stated), the TGI is > 100 µM.
As for `COc1cc2cc(Oc3ccc(NC(=O)Nc4ccc(Cl)c(C(F)(F)F)c4)cc3)c(C)nc2cc1OCCN1CCCCC1`, the GI50 is 1.85 µM and the TGI came out at 3.46 µM.
In turn, `CC1=CC(=O)c2c(O)cccc2C1=O` returned a TGI of 4.12 µM.
Still for that read-out and setting: then `COC(=O)[C@@H]1CSC(=S)N1C(=O)C[C@H]1CC=CC[C@H]1CC(=O)Sc1ccccc1`, with 33.4 µM; and `CC1(Sc2ccccc2)CN(Cc2ccccc2)C1=O` (configuration not stated), with > 100 µM.
`O=C(CCN1CCCC1)Nc1ccc2c(NCc3ccc(F)cc3)c3ccccc3nc2c1`: the GI50 was 0.485 µM and the TGI turned out to be 2.03 µM.
Regarding `C=C1C(=O)OC2CC3(C)C=CC(=O)C(=C)C3CC12` (configuration not stated), the TGI came to 6.55 µM.
Still for that read-out and setting: then `CCOP(=O)(OCC)C1CCCCOC1=O` (configuration not stated), with > 100 µM.
For the molecule `N#CC(C#N)=Cc1ccc(-c2ccc(-c3nc4ccccc4s3)cc2)o1`, the GI50 was 18.9 µM and the TGI is 45.1 µM.

The next test deals with HL-60(TB) leukemia. The test can be described thus: NCI-60 cell line screen, 48 h.
`CN(C)c1ccc2c(NCCCCCCNc3ccnc4cc(N(C)C)ccc34)ccnc2c1`: the TGI was > 100 µM.
Consider `CC(=O)[O][Pb]([O]C(C)=O)([c]1ccccc1)[c]1ccccc1`, for which the GI50 was > 100 µM and the TGI is > 100 µM.
For `CN1CCc2c1nc(-c1ccccc1)c1c2N(C)CC1`, the TGI is > 100 µM.
Turning to `CCC[CH2][Sn]([CH2]CCC)([O]C(C)=O)[O]C(C)=O`, the GI50 is 0.524 µM and the TGI was determined as 1.45 µM.
For `COC(=O)CCC(=O)N1Cc2cc(C)ccc2N(C(=O)CCC(=O)OC)Cc2cc(C)ccc21`, the TGI was > 100 µM.
As to `CCOC(=O)c1c2c(n(CC(C)C)c1C)-c1nc[nH]c1C(=O)C2=O`, the GI50 was 0.388 µM and the TGI came to 2.82 µM.
